Tests used:
[1] = test system: Penicillium glaucum; test: Spore germination test, Penicillium glaucum; format: cell-based; conditions: 48 hours, 20° C., vs untreated control
Procedure: (§1) 50 μl of a solution or suspension of an active ingredient according to the invention together with 50 μl of a spore suspension produced by washing spores of an agar culture with a nutrient solution that contained per liter 10 g of sugar, 1 g of glycol, 1 g of KH2 PO4 and 0.5 g of MgSO4 were introduced into the concave-ground portion of concave-ground microscope slides.
(§2) The microscope slides were stored at 20° C. for 48 hours in a Petri dish, the base of which was covered with a moistened filter paper.
(§3) Subsequently, the ratio of germinated and non-germinated spores was compared with an untreated control specimen.
(§4) The degree of activity was calculated as a percentage in accordance with the following formula: [formula]

[2] = test system: Alternaria tenuis; test: Spore germination test, Alternaria tenuis; format: cell-based; conditions: 48 hours, 20° C., vs untreated control
Procedure: as §1, §2, §3, §4

[3] = test system: Fusarium culmorum; test: Spore germination test, Fusarium culmorum; format: cell-based; conditions: 48 hours, 20° C., vs untreated control
Procedure: as §1, §2, §3, §4

[4] = test system: Colletotrichum coffeanum; test: Spore germination test, Colletotrichum coffeanum; format: cell-based; conditions: 48 hours, 20° C., vs untreated control
Procedure: as §1, §2, §3, §4

[5] = test system: Botrytis cinerea; test: Spore germination test, Botrytis cinerea; format: cell-based; conditions: 48 hours, 20° C., vs untreated control
Procedure: as §1, §2, §3, §4

[6] = test system: Fusarium nivale; test: Spore germination test, Fusarium nivale; format: cell-based; conditions: 48 hours, 20° C., vs untreated control
Procedure: as §1, §2, §3, §4

[7] = test system: Verticillium dahliae; test: Spore germination test, Verticillium dahliae; format: cell-based; conditions: 48 hours, 20° C., vs untreated control
Procedure: as §1, §2, §3, §4

[8] = test system: Botrytis cinerea; test: Fungicidal activity against Botrytis cinerea in broad beans; format: in vivo; conditions: 500 ppm spray, broad beans "Midget", after 6 days, 20° C., 95% humidity, vs untreated
Procedure: Broad beans of the "Midget" variety were grown to a height of approximately 10 cm. The plants were sprayed until dripping wet with spray liquors containing 500 ppm of active ingredient.
When the spray coating had dried, the plants were inoculated with a spore suspension of Botrytis cinerea. The plants were placed in a climatic cabinet at a constant 20° C. and an atmospheric humidity of 95%.
After 6 days, fungicidal activity was evaluated. The activity was ascertained in comparison with untreated specimens.
The degree of activity as a percentage was ascertained in accordance with the following formula [formula] The following were used as active ingredients: I 2-chloro-3,5-dinitrophenylacetic acid iodopropargyl ester

Compound: O=C(Cc1cc([N+](=O)[O-])c(Cl)c([N+](=O)[O-])c1Cl)OCC#CI [G]
- degree of activity (fungal toxicity with respect to fungal spores) ([1]; 2 ppm): 70%
- degree of activity (fungal toxicity with respect to fungal spores) ([2]; 2 ppm): 70%
- degree of activity (fungal toxicity with respect to fungal spores) ([3]; 2 ppm): 70%
- degree of activity (fungal toxicity with respect to fungal spores) ([4]; 2 ppm): 60%
- degree of activity (fungal toxicity with respect to fungal spores) ([5]; 2 ppm): 100%
- degree of activity (fungal toxicity with respect to fungal spores) ([6]; 2 ppm): 80%
- degree of activity (fungal toxicity with respect to fungal spores) ([7]; 2 ppm): 70%

Compound: O=C(Cc1cc([N+](=O)[O-])c(Cl)c([N+](=O)[O-])c1)OCC#CI [H]
- degree of activity (fungal toxicity with respect to fungal spores) ([1]; 2 ppm): 100%
- degree of activity (fungal toxicity with respect to fungal spores) ([2]; 2 ppm): 100%
- % Activity against Botrytis cinerea in broad beans [8]: 30%
- degree of activity (fungal toxicity with respect to fungal spores) ([3]; 2 ppm): 90%
- degree of activity (fungal toxicity with respect to fungal spores) ([4]; 2 ppm): 100%
- degree of activity (fungal toxicity with respect to fungal spores) ([5]; 2 ppm): 70%
- degree of activity (fungal toxicity with respect to fungal spores) ([6]; 2 ppm): 90%
- degree of activity (fungal toxicity with respect to fungal spores) ([7]; 2 ppm): 40%

Compound: O=C(Cc1c(Cl)cccc1Cl)OCC#CI [C]
- degree of activity (fungal toxicity with respect to fungal spores) ([1]; 1 ppm): 60%
- degree of activity (fungal toxicity with respect to fungal spores) ([1]; 2 ppm): 90%
- degree of activity (fungal toxicity with respect to fungal spores) ([1]; 4 ppm): 90%
- degree of activity (fungal toxicity with respect to fungal spores) ([2]; 1 ppm): 95%
- degree of activity (fungal toxicity with respect to fungal spores) ([2]; 2 ppm): 95%
- degree of activity (fungal toxicity with respect to fungal spores) ([2]; 4 ppm): 95%
- degree of activity (fungal toxicity with respect to fungal spores) ([3]; 1 ppm): 95%
- degree of activity (fungal toxicity with respect to fungal spores) ([3]; 2 ppm): 95%
- degree of activity (fungal toxicity with respect to fungal spores) ([3]; 4 ppm): 95%
- degree of activity (fungal toxicity with respect to fungal spores) ([4]; 1 ppm): 95%
- degree of activity (fungal toxicity with respect to fungal spores) ([4]; 2 ppm): 95%
- degree of activity (fungal toxicity with respect to fungal spores) ([4]; 4 ppm): 95%
- degree of activity (fungal toxicity with respect to fungal spores) ([5]; 1 ppm): 95%
- degree of activity (fungal toxicity with respect to fungal spores) ([5]; 2 ppm): 95%
- degree of activity (fungal toxicity with respect to fungal spores) ([5]; 4 ppm): 100%
- degree of activity (fungal toxicity with respect to fungal spores) ([6]; 1 ppm): 100%
- degree of activity (fungal toxicity with respect to fungal spores) ([6]; 2 ppm): 100%
- degree of activity (fungal toxicity with respect to fungal spores) ([6]; 4 ppm): 100%
- degree of activity (fungal toxicity with respect to fungal spores) ([7]; 1 ppm): 100%
- degree of activity (fungal toxicity with respect to fungal spores) ([7]; 2 ppm): 100%
- degree of activity (fungal toxicity with respect to fungal spores) ([7]; 4 ppm): 100%

Compound: O=C(Cc1cc([N+](=O)[O-])c(Cl)cc1Cl)OCC#CI [E]
- degree of activity (fungal toxicity with respect to fungal spores) ([1]; 1 ppm): 100%
- degree of activity (fungal toxicity with respect to fungal spores) ([1]; 2 ppm): 100%
- degree of activity (fungal toxicity with respect to fungal spores) ([1]; 4 ppm): 100%
- degree of activity (fungal toxicity with respect to fungal spores) ([2]; 1 ppm): 100%
- degree of activity (fungal toxicity with respect to fungal spores) ([2]; 2 ppm): 100%
- degree of activity (fungal toxicity with respect to fungal spores) ([2]; 4 ppm): 100%
- degree of activity (fungal toxicity with respect to fungal spores) ([3]; 1 ppm): 100%
- degree of activity (fungal toxicity with respect to fungal spores) ([3]; 2 ppm): 100%
- degree of activity (fungal toxicity with respect to fungal spores) ([3]; 4 ppm): 100%
- degree of activity (fungal toxicity with respect to fungal spores) ([4]; 1 ppm): 100%
- degree of activity (fungal toxicity with respect to fungal spores) ([4]; 2 ppm): 100%
- degree of activity (fungal toxicity with respect to fungal spores) ([4]; 4 ppm): 100%
- degree of activity (fungal toxicity with respect to fungal spores) ([5]; 1 ppm): 30%
- degree of activity (fungal toxicity with respect to fungal spores) ([5]; 2 ppm): 30%
- degree of activity (fungal toxicity with respect to fungal spores) ([5]; 4 ppm): 40%
- degree of activity (fungal toxicity with respect to fungal spores) ([6]; 1 ppm): 100%
- degree of activity (fungal toxicity with respect to fungal spores) ([6]; 2 ppm): 100%
- degree of activity (fungal toxicity with respect to fungal spores) ([6]; 4 ppm): 100%
- degree of activity (fungal toxicity with respect to fungal spores) ([7]; 1 ppm): 30%
- degree of activity (fungal toxicity with respect to fungal spores) ([7]; 2 ppm): 30%
- degree of activity (fungal toxicity with respect to fungal spores) ([7]; 4 ppm): 40%

Compound: O=C(OCC#CI)C(Br)c1ccc(Cl)cc1 (stereo not shown) [B]
- degree of activity (fungal toxicity with respect to fungal spores) ([1]; 1 ppm): 100%
- degree of activity (fungal toxicity with respect to fungal spores) ([1]; 2 ppm): 100%
- degree of activity (fungal toxicity with respect to fungal spores) ([1]; 4 ppm): 100%
- degree of activity (fungal toxicity with respect to fungal spores) ([2]; 1 ppm): 100%
- degree of activity (fungal toxicity with respect to fungal spores) ([2]; 2 ppm): 100%
- degree of activity (fungal toxicity with respect to fungal spores) ([2]; 4 ppm): 100%
- degree of activity (fungal toxicity with respect to fungal spores) ([3]; 1 ppm): 100%
- degree of activity (fungal toxicity with respect to fungal spores) ([3]; 2 ppm): 100%
- degree of activity (fungal toxicity with respect to fungal spores) ([3]; 4 ppm): 100%
- degree of activity (fungal toxicity with respect to fungal spores) ([4]; 1 ppm): 100%
- degree of activity (fungal toxicity with respect to fungal spores) ([4]; 2 ppm): 100%
- degree of activity (fungal toxicity with respect to fungal spores) ([4]; 4 ppm): 100%
- degree of activity (fungal toxicity with respect to fungal spores) ([5]; 1 ppm): 100%
- degree of activity (fungal toxicity with respect to fungal spores) ([5]; 2 ppm): 100%
- degree of activity (fungal toxicity with respect to fungal spores) ([5]; 4 ppm): 100%
- degree of activity (fungal toxicity with respect to fungal spores) ([6]; 1 ppm): 100%
- degree of activity (fungal toxicity with respect to fungal spores) ([6]; 2 ppm): 100%
- degree of activity (fungal toxicity with respect to fungal spores) ([6]; 4 ppm): 100%
- degree of activity (fungal toxicity with respect to fungal spores) ([7]; 1 ppm): 100%
- degree of activity (fungal toxicity with respect to fungal spores) ([7]; 2 ppm): 100%
- degree of activity (fungal toxicity with respect to fungal spores) ([7]; 4 ppm): 100%

Compound: O=C(OCC#CI)C(Cl)c1ccccc1 (stereo not shown) [D]
- degree of activity (fungal toxicity with respect to fungal spores) ([1]; 1 ppm): 90%
- degree of activity (fungal toxicity with respect to fungal spores) ([1]; 2 ppm): 95%
- degree of activity (fungal toxicity with respect to fungal spores) ([1]; 4 ppm): 95%
- degree of activity (fungal toxicity with respect to fungal spores) ([2]; 1 ppm): 80%
- degree of activity (fungal toxicity with respect to fungal spores) ([2]; 2 ppm): 90%
- degree of activity (fungal toxicity with respect to fungal spores) ([2]; 4 ppm): 90%
- degree of activity (fungal toxicity with respect to fungal spores) ([3]; 1 ppm): 90%
- degree of activity (fungal toxicity with respect to fungal spores) ([3]; 2 ppm): 95%
- degree of activity (fungal toxicity with respect to fungal spores) ([3]; 4 ppm): 95%
- degree of activity (fungal toxicity with respect to fungal spores) ([4]; 1 ppm): 80%
- degree of activity (fungal toxicity with respect to fungal spores) ([4]; 2 ppm): 90%
- degree of activity (fungal toxicity with respect to fungal spores) ([4]; 4 ppm): 95%
- degree of activity (fungal toxicity with respect to fungal spores) ([5]; 1 ppm): 80%
- degree of activity (fungal toxicity with respect to fungal spores) ([5]; 2 ppm): 80%
- degree of activity (fungal toxicity with respect to fungal spores) ([5]; 4 ppm): 90%
- degree of activity (fungal toxicity with respect to fungal spores) ([6]; 1 ppm): 60%
- degree of activity (fungal toxicity with respect to fungal spores) ([6]; 2 ppm): 80%
- degree of activity (fungal toxicity with respect to fungal spores) ([6]; 4 ppm): 90%
- degree of activity (fungal toxicity with respect to fungal spores) ([7]; 1 ppm): 80%
- degree of activity (fungal toxicity with respect to fungal spores) ([7]; 2 ppm): 80%
- degree of activity (fungal toxicity with respect to fungal spores) ([7]; 4 ppm): 95%

Compound: O=C(Cc1ccc([N+](=O)[O-])cc1)OCC#CI [F]
- degree of activity (fungal toxicity with respect to fungal spores) ([1]; 2 ppm): 80%
- degree of activity (fungal toxicity with respect to fungal spores) ([2]; 2 ppm): 100%
- degree of activity (fungal toxicity with respect to fungal spores) ([3]; 2 ppm): 40%
- degree of activity (fungal toxicity with respect to fungal spores) ([4]; 2 ppm): 90%
- degree of activity (fungal toxicity with respect to fungal spores) ([5]; 2 ppm): 40%
- degree of activity (fungal toxicity with respect to fungal spores) ([6]; 2 ppm): 80%
- degree of activity (fungal toxicity with respect to fungal spores) ([7]; 2 ppm): 90%

Compound: O=C(Cc1c(Cl)c([N+](=O)[O-])cc([N+](=O)[O-])c1Cl)OCC#CI [K]
- % Activity against Botrytis cinerea in broad beans [8]: 30%

Compound: O=C(Cc1cc([N+](=O)[O-])cc([N+](=O)[O-])c1Cl)OCC#CI [I]
- % Activity against Botrytis cinerea in broad beans [8]: 80%

Compound: Cc1cc(C)c(CC(=O)OCC#CI)c(C)c1 [L]
- % Activity against Botrytis cinerea in broad beans [8]: 20%

Compound: O=C(Cc1ccc(Cl)cc1)OCC#CI [A]
- degree of activity (fungal toxicity with respect to fungal spores) ([1]; 1 ppm): 90%
- degree of activity (fungal toxicity with respect to fungal spores) ([1]; 2 ppm): 95%
- degree of activity (fungal toxicity with respect to fungal spores) ([1]; 4 ppm): 95%
- degree of activity (fungal toxicity with respect to fungal spores) ([2]; 1 ppm): 80%
- degree of activity (fungal toxicity with respect to fungal spores) ([2]; 2 ppm): 80%
- degree of activity (fungal toxicity with respect to fungal spores) ([2]; 4 ppm): 90%
- degree of activity (fungal toxicity with respect to fungal spores) ([3]; 1 ppm): 90%
- degree of activity (fungal toxicity with respect to fungal spores) ([3]; 2 ppm): 95%
- degree of activity (fungal toxicity with respect to fungal spores) ([3]; 4 ppm): 95%
- degree of activity (fungal toxicity with respect to fungal spores) ([4]; 1 ppm): 80%
- degree of activity (fungal toxicity with respect to fungal spores) ([4]; 2 ppm): 90%
- degree of activity (fungal toxicity with respect to fungal spores) ([4]; 4 ppm): 95%
- degree of activity (fungal toxicity with respect to fungal spores) ([5]; 1 ppm): 80%
- degree of activity (fungal toxicity with respect to fungal spores) ([5]; 2 ppm): 80%
- degree of activity (fungal toxicity with respect to fungal spores) ([5]; 4 ppm): 90%
- degree of activity (fungal toxicity with respect to fungal spores) ([6]; 1 ppm): 60%
- degree of activity (fungal toxicity with respect to fungal spores) ([6]; 2 ppm): 80%
- degree of activity (fungal toxicity with respect to fungal spores) ([6]; 4 ppm): 90%
- degree of activity (fungal toxicity with respect to fungal spores) ([7]; 1 ppm): 80%
- degree of activity (fungal toxicity with respect to fungal spores) ([7]; 2 ppm): 80%
- degree of activity (fungal toxicity with respect to fungal spores) ([7]; 4 ppm): 95%

Reference: US4639541A, “Substituted phenylacetic acid iodopropargyl esters, biocidal agents containing same and process for manufacturing same” (priority 1984, dated 1987)
